For 4 compounds, IC50, GI50 and Activity results are on record in ChEMBL document CHEMBL1147992, “Glaziovianin A, a new isoflavone, from the leaves of Ateleia glazioviana and its cytotoxic activity against human cancer cells” (Bioorg Med Chem Lett, 2007).

Active and inactive are the calls of the source. The rule behind the calls is not given here.

For one experiment, the system named is HL-60. Briefly: Cytotoxicity against human HL60 cells by MTT assay after 72 hrs. The following applies: HL-60, 72 h. Format: functional, cell-based. A general note: Formazan colour is commonly taken as a measure of viable cells.
The subject of the next experiment is OVCAR-8. Kind of experiment: Cytotoxicity against human OVCAR8 cells by MTT assay after 72 hrs. Format: functional. The following applies: OVCAR-8, 72 h.
For another experiment, the system named is SK-OV-3. Briefly: Cytotoxicity against human SK-OV3 cells by MTT assay after 72 hrs. Format: functional. Particulars: SK-OV-3, 72 h.
Experiment [1] can be described thus: Cytotoxicity against human RXF631L cells by MTT assay after 72 hrs. It is filed as functional. The following applies: RXF 631, 72 h.
For a further experiment, the system named is ACHN. Kind of experiment: Cytotoxicity against human ACHN cells by MTT assay after 72 hrs. It is filed as functional.
A further experiment relates to St-4. Briefly: Cytotoxicity against human St4 cells by MTT assay after 72 hrs. It is filed as functional. Particulars: St-4, 72 h.
A short description of experiment [2]: Cytotoxicity against human MKN1 cells by MTT assay after 72 hrs. Format: functional. The following applies: MKN-1, 72 h.
The subject of the next experiment is MKN-7. Kind of experiment: Cytotoxicity against human MKN7 cells by MTT assay after 72 hrs. Format: functional. The following applies: MKN-7, 72 h.
The nature of experiment [3]: Cytotoxicity against human HBC4 cells by MTT assay after 72 hrs. Format: functional. Particulars: HBC4, 72 h.
Experiment [4] in a line: Cytotoxicity against human BSY1 cells by MTT assay after 72 hrs. Format: functional. Particulars: BSY-1, 72 h.
Experiment [5] can be described thus: Cytotoxicity against human HBC5 cells by MTT assay after 72 hrs. Format: functional. Particulars: HBC5, 72 h.
Another experiment deals with MCF7. Briefly: Cytotoxicity against human MCF7 cells by MTT assay after 72 hrs. The following applies: MCF7, 72 h. Format: functional.
The subject of another experiment is MDA-MB-231. Briefly: Cytotoxicity against human MDA-MB-231 cells by MTT assay after 72 hrs. The following applies: MDA-MB-231, 72 h. It is filed as functional.
Another experiment deals with U-251. Kind of experiment: Cytotoxicity against human U251 cells by MTT assay after 72 hrs. Format: functional. Particulars: U-251, 72 h.
The test system of a further experiment is SF-268. Briefly: Cytotoxicity against human SF268 cells by MTT assay after 72 hrs. It is filed as functional. Particulars: SF-268, 72 h.
The test system of a further experiment is SF-295. Kind of experiment: Cytotoxicity against human SF295 cells by MTT assay after 72 hrs. It is filed as functional. Particulars: SF-295, 72 h.
A further experiment concerns SF-539. Briefly: Cytotoxicity against human SF539 cells by MTT assay after 72 hrs. Format: functional. The following applies: SF-539, 72 h.
The subject of the next experiment is SNB-75. Briefly: Cytotoxicity against human SNB75 cells by MTT assay after 72 hrs. Format: functional. Particulars: SNB-75, 72 h.
Another experiment concerns SNB-78. Briefly: Cytotoxicity against human SNB78 cells by MTT assay after 72 hrs. Format: functional. The following applies: SNB-78, 72 h.
Another experiment concerns HCC 2998. Briefly: Cytotoxicity against human HCC2998 cells by MTT assay after 72 hrs. Particulars: HCC 2998, 72 h. It is filed as functional.
A further experiment concerns KM12. Kind of experiment: Cytotoxicity against human KM12 cells by MTT assay after 72 hrs. Format: functional. The following applies: KM12, 72 h.
Another experiment concerns HT-29. Briefly: Cytotoxicity against human HT29 cells by MTT assay after 72 hrs. Format: functional. Particulars: HT-29, 72 h.
For the next experiment, the system named is HCT-15. Kind of experiment: Cytotoxicity against human HCT15 cells by MTT assay after 72 hrs. It is filed as functional. The following applies: HCT-15, 72 h.
A further experiment relates to HCT-116. Briefly: Cytotoxicity against human HCT116 cells by MTT assay after 72 hrs. Format: functional. The following applies: HCT-116, 72 h.
Another experiment deals with NCI-H23. Kind of experiment: Cytotoxicity against human NCIH23 cells by MTT assay after 72 hrs. It is filed as functional. Particulars: NCI-H23, 72 h.
Experiment [6] in a line: Cytotoxicity against human […] cells by MTT assay after 72 hrs. Format: functional.
In a further experiment the test system is NCI-H522. Briefly: Cytotoxicity against human NCIH522 cells by MTT assay after 72 hrs. Format: functional. The following applies: NCI-H522, 72 h.
The test system of a further experiment is NCI-H460. Briefly: Cytotoxicity against human NCIH460 cells by MTT assay after 72 hrs. It is filed as functional. The following applies: NCI-H460, 72 h.
A further experiment relates to A549. Kind of experiment: Cytotoxicity against human A549 cells by MTT assay after 72 hrs. It is filed as functional. Particulars: A549, 72 h.
The next experiment concerns DMS-273. Briefly: Cytotoxicity against human DMS273 cells by MTT assay after 72 hrs. The following applies: DMS-273, 72 h. Format: functional.
The next experiment has as its system DMS-114. Briefly: Cytotoxicity against human DMS114 cells by MTT assay after 72 hrs. It is filed as functional. The following applies: DMS-114, 72 h.
The test system of the next experiment is LOX IMVI. Briefly: Cytotoxicity against human LOX-IMVI cells by MTT assay after 72 hrs. Format: functional.
In another experiment the test system is OVCAR-3. Briefly: Cytotoxicity against human OVCAR-3 cells by MTT assay after 72 hrs. Particulars: OVCAR-3, 72 h. Format: functional.
The next experiment relates to OVCAR-4. Kind of experiment: Cytotoxicity against human OVCAR4 cells by MTT assay after 72 hrs. Particulars: OVCAR-4, 72 h. Format: functional.
A further experiment has as its system OVCAR-5. Briefly: Cytotoxicity against human OVCAR5 cells by MTT assay after 72 hrs. It is filed as functional. The following applies: OVCAR-5, 72 h.
The subject of the next experiment is MKN-28. Briefly: Cytotoxicity against human MKN28 cells by MTT assay after 72 hrs. It is filed as functional. The following applies: MKN-28, 72 h.
The test system of another experiment is MKN-45. Kind of experiment: Cytotoxicity against human MKN45 cells by MTT assay after 72 hrs. The following applies: MKN-45, 72 h. Format: functional.
The test system of another experiment is MKN-74. Kind of experiment: Cytotoxicity against human MKN74 cells by MTT assay after 72 hrs. Format: functional. The following applies: MKN-74, 72 h.
The subject of another experiment is DU-145. Kind of experiment: Cytotoxicity against human DU145 cells by MTT assay after 72 hrs. It is filed as functional. The following applies: DU-145, 72 h.
The next experiment relates to PC-3. Briefly: Cytotoxicity against human PC3 cells by MTT assay after 72 hrs. It is filed as functional. Particulars: PC-3, 72 h.
A further experiment deals with 3Y1. Briefly: Disruption of microtubules in rat 3Y1 cells at 1 uM after 18 hrs. Format: functional, cell-based.
The nature of experiment [7]: Cell cycle arrest in rat 3Y1 cells by accumulation at M phase at 3 uM after 18 hrs. Format: functional, cell-based.

As usually defined, the IC50 is the concentration at which inhibition is half-maximal. On to `COc1cc2occ(-c3cc4c(cc3OC)OCO4)c(=O)c2cc1OC`, for which the IC50 with HL-60 was found to be 16 µM.

In the experiment with HL-60, `COc1ccc(-c2coc3cc(OC)c(OC)cc3c2=O)cc1OC` showed an IC50 of 23 µM.

Turning to `COc1cc(OC)c(-c2coc3cc(OC)c(OC)cc3c2=O)cc1OC`, 8.5 µM corresponded to half-maximal inhibition in the experiment with HL-60 (IC50).

As usually defined, the GI50 is the concentration at which growth is held to half of that of the control. A low value points to more potent growth inhibition. For the compound `COc1cc2occ(-c3cc(OC)c4c(c3OC)OCO4)c(=O)c2cc1OC` [GLAZIOVIANIN A], the GI50 with OVCAR-8 came to 1.51 µM; in the experiment on SK-OV-3, 0.28 µM; in experiment [1] it was 0.51 µM; with ACHN, 0.62 µM; in the experiment with St-4 it was 15.1 µM; in experiment [2], 0.69 µM. The 50% growth inhibitory concentration (GI50) in the experiment on MKN-7 was 1.51 µM; in [3] it was 1.95 µM; in [4] it was 0.05 µM; in experiment [5] it was 0.47 µM; with MCF7 it was 0.39 µM; with MDA-MB-231, 1.1 µM. Also, the 50% growth inhibitory concentration (GI50) in the experiment with U-251 came to 0.79 µM; in the experiment with SF-268, 0.83 µM; in the experiment on SF-295 it was 0.34 µM; in the experiment on SF-539, 0.32 µM; with SNB-75 it was 0.63 µM; with SNB-78 it was 10.7 µM. The GI50 in the experiment with HCC 2998 was 3.02 µM; with KM12 it was 0.32 µM; in the experiment with HT-29, 0.46 µM; with HCT-15, 0.29 µM; in the experiment on HCT-116, 0.56 µM; in the experiment with NCI-H23 it was 5.13 µM. Moreover, the GI50 was 0.58 µM in [6]; 0.23 µM with NCI-H522; 0.41 µM in the experiment with NCI-H460; 0.83 µM in the experiment on A549; 0.13 µM in the experiment with DMS-273; 0.2 µM in the experiment on DMS-114. The GI50 amounted to 0.87 µM with LOX IMVI; 0.13 µM with OVCAR-3; 10.5 µM in the experiment on OVCAR-4; 2.19 µM in the experiment on OVCAR-5; 0.45 µM in the experiment with MKN-28; 0.68 µM in the experiment with MKN-45. For the same compound, the GI50 was 0.39 µM with MKN-74, 0.59 µM with DU-145 and 0.1 µM with PC-3. Further, it took 0.29 µM to reach half-maximal inhibition in the experiment with HL-60 (IC50). Further, the outcome (in the experiment on 3Y1; in experiment [7]) was Active.
